The numbers were not newly measured in patent US20250345370A1, “MICROBIAL LIBERATION OF N-METHYLSEROTONIN FROM ORANGE FIBER” (Washington University, priority 2022, published 2025), which cites them from elsewhere.

One series addresses T1, 5-HT2A receptor (Rattus norvegicus, UniProt P14842).
T1 construct: increase glucose uptake in cultured rat muscle via its agonist activity on the 5-HT2A receptor; host or cells: cultured rat muscle
To be noted: cultured rat muscle, agonist activity on the 5-HT2A receptor; cited from earlier work.

In another series the target is 5-Htr7 (Homo sapiens, UniProt P34969). The following applies: in vitro studies; cited from earlier work.
Chain of 5-Htr7 (P34969 whole entry): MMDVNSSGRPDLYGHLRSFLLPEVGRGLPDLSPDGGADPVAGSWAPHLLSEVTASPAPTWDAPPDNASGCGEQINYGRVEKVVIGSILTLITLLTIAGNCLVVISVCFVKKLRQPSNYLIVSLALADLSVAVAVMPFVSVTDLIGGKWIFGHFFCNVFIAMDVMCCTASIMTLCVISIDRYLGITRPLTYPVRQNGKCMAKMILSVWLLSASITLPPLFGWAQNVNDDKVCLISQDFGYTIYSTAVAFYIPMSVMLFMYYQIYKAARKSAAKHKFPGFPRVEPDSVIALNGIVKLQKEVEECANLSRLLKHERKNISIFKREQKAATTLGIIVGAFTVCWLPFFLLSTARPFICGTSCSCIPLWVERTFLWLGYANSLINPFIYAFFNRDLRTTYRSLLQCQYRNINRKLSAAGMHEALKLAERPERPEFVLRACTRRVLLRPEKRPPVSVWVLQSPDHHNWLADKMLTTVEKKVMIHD

T1 sequence (P14842 whole entry): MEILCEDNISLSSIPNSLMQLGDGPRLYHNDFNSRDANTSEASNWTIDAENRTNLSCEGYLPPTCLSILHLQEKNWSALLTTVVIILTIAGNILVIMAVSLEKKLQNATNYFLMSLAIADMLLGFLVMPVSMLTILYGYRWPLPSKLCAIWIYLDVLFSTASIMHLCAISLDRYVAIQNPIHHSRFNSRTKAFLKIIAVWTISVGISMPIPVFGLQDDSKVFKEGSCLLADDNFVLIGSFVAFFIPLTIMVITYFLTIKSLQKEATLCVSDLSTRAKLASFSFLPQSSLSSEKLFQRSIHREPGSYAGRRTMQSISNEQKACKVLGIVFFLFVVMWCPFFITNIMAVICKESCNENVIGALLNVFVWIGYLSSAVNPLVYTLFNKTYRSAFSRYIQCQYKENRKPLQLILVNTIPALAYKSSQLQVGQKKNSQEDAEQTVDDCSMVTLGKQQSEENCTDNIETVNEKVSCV

As to `CNCCc1c[nH]c2ccc(O)cc12` [N-methylserotonin], the glucose uptake result at 5-HT2A receptor is given as “able to increase glucose uptake”. For the same compound, the binding result at 5-Htr7 was “binds”.
